Test results reported in ChEMBL document CHEMBL1201862, “PubChem BioAssay data set” (2004).
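Assay format: 96-well plates, 48-hour exposure. GI50 marks 50% less growth.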 Calls of active or inactive are those of the source. No stated cut-off is given here; in the data, active = GI50 up to about 1.1 µM and inactive = higher.

Key:
Assay in all cases: inhibition of tumour cell growth, NCI panel, 48 h
SF-539 = tested on: SF-539
KM12 = tested on: KM12
SK-MEL-2 = tested on: SK-MEL-2
SR = tested on: SR
NCI-H226 = tested on: NCI-H226
OVCAR-4 = tested on: OVCAR-4
SN12C = tested on: SN12C
UO-31 = tested on: UO-31
HL-60 = tested on: HL-60
M14 = tested on: M14
OVCAR-3 = tested on: OVCAR-3
K562 = tested on: K562
EKVX = tested on: EKVX
SK-OV-3 = tested on: SK-OV-3
CAKI-1 = tested on: CAKI-1
HCT-15 = tested on: HCT-15
NCI/ADR-RES = tested on: NCI/ADR-RES
MDA-MB-435 = tested on: MDA-MB-435
DU-145 = tested on: DU-145
MCF7 = tested on: MCF7

SMILES	GI50 (SF-539)	GI50 (KM12)	GI50 (SK-MEL-2)	GI50 (SR)	GI50 (NCI-H226)	GI50 (OVCAR-4)	GI50 (SN12C)	GI50 (UO-31)	GI50 (HL-60)	GI50 (M14)	GI50 (OVCAR-3)	GI50 (K562)	GI50 (EKVX)	GI50 (SK-OV-3)	GI50 (CAKI-1)	GI50 (HCT-15)	GI50 (NCI/ADR-RES)	GI50 (MDA-MB-435)	GI50 (DU-145)	GI50 (MCF7)
CCOC(=O)COS(=O)(=O)C(F)(F)F	> 100 µM (inactive)	> 100 µM (inactive)	> 100 µM (inactive)	24.7 µM (inactive)	> 100 µM (inactive)	> 100 µM (inactive)	> 100 µM (inactive)	> 100 µM (inactive)	> 100 µM (inactive)	> 100 µM (inactive)	> 100 µM (inactive)	> 100 µM (inactive)	> 100 µM (inactive)	> 100 µM (inactive)	> 100 µM (inactive)	18.5 µM				
CCC/C(C)=N/NC(=S)SC.CCC/C(C)=N/NC(=S)SC.[Zn+2]	13.7 µM (inactive)	11.5 µM (inactive)	13.9 µM (inactive)		12.6 µM (inactive)	14.1 µM (inactive)	2.94 µM (inactive)	11 µM (inactive)		11.1 µM (inactive)	10.2 µM (inactive)	16.6 µM (inactive)	15 µM (inactive)	16.2 µM (inactive)	13.7 µM (inactive)	2.24 µM	16.7 µM (inactive)	11.4 µM (inactive)	12 µM (inactive)	7.24 µM (inactive)
CP1(=O)CCCCC1	> 100 µM (inactive)	> 100 µM (inactive)	> 100 µM (inactive)	> 100 µM (inactive)	> 100 µM (inactive)	> 100 µM (inactive)	> 100 µM (inactive)	> 100 µM (inactive)	> 100 µM (inactive)	> 100 µM (inactive)	> 100 µM (inactive)	> 100 µM (inactive)	> 100 µM (inactive)	> 100 µM (inactive)	> 100 µM (inactive)	> 100 µM				
O=C1C2C3C=CC(C2C(=O)N1CN1CCSCC1)C1C2C(=O)N(CN4CCSCC4)C(=O)C2C31 (stereo not given)	> 100 µM (inactive)	> 100 µM (inactive)	> 100 µM (inactive)	39.7 µM (inactive)	> 100 µM (inactive)	> 100 µM (inactive)	97.9 µM (inactive)	> 100 µM (inactive)	29.9 µM (inactive)	> 100 µM (inactive)	> 100 µM (inactive)	> 100 µM (inactive)	> 100 µM (inactive)	> 100 µM (inactive)	> 100 µM (inactive)	34.8 µM				
OCC(O)C(O)C(O)c1nn(-c2ccccc2)c2nc3cc(Cl)c(Cl)cc3nc12 (stereo not given)	18.6 µM (inactive)	> 10 µM (inactive)	33 µM (inactive)	33.9 µM (inactive)	36.5 µM (inactive)	35.6 µM (inactive)	41.9 µM (inactive)	37.2 µM (inactive)	27 µM (inactive)	17.7 µM (inactive)	40.3 µM (inactive)	18.6 µM (inactive)	51.6 µM (inactive)	> 100 µM (inactive)	20 µM (inactive)					
CC1=C[C@@H](C)C[C@]2(C)CC[C@H](O2)[C@]23CC[C@](C)(C[C@H](O2)[C@@H]2O[C@@](C)(CC2=O)[C@@H](O)[C@H]2CC[C@@]4(CCC[C@@H](O4)[C@H](C)C(=O)O[C@H]4C[C@H]([C@]5(O)OCC[C@H](C)[C@@H]5O)O[C@H]4C=C1)O2)O3	0.00185 µM (active)	0.0586 µM (active)	0.383 µM (active)	0.00157 µM (active)	0.00157 µM (active)	0.00344 µM (active)		0.00408 µM (active)	0.0346 µM (active)	0.00527 µM (active)	0.00397 µM (active)	0.00692 µM (active)	0.0113 µM (active)	0.00757 µM (active)	< 0.001 µM (active)	0.00796 µM	0.897 µM (active)	0.0371 µM (active)	0.0601 µM (active)	
CCCCCCCCCCCCCCCCOCC(CCl)OP(=O)(O)OP(=O)(O)OCC1OC(n2ccc(N)nc2=O)C(O)C1O (stereo not given)	> 100 µM (inactive)	> 100 µM (inactive)	> 100 µM (inactive)		> 100 µM (inactive)	> 100 µM (inactive)	> 100 µM (inactive)	> 100 µM (inactive)	> 100 µM (inactive)	> 100 µM (inactive)	> 100 µM (inactive)	> 100 µM (inactive)	> 100 µM (inactive)	> 100 µM (inactive)	> 100 µM (inactive)	> 100 µM	> 100 µM (inactive)	> 100 µM (inactive)		> 100 µM (inactive)
Cn1cc(S(=O)(=O)NC(=O)Nc2ccc(Cl)cc2)c(=O)c2ccc(Cl)cc21	> 100 µM (inactive)	69.7 µM (inactive)	> 100 µM (inactive)	43.8 µM (inactive)	75 µM (inactive)	> 100 µM (inactive)	99.3 µM (inactive)	> 100 µM (inactive)		> 100 µM (inactive)	> 100 µM (inactive)	47.1 µM (inactive)	> 100 µM (inactive)	> 100 µM (inactive)	> 100 µM (inactive)	25.7 µM	38 µM (inactive)	48.5 µM (inactive)		> 100 µM (inactive)
Cc1ccc(NC(=O)CC/C(CC(=O)C(C)(C)C)=N/NC(=O)C[N+](C)(C)C)cc1C	18.6 µM (inactive)	> 100 µM (inactive)	> 100 µM (inactive)	84.1 µM (inactive)	> 100 µM (inactive)	> 100 µM (inactive)	> 100 µM (inactive)	> 100 µM (inactive)	> 100 µM (inactive)	> 100 µM (inactive)	> 100 µM (inactive)	> 100 µM (inactive)	> 100 µM (inactive)	> 100 µM (inactive)	> 100 µM (inactive)	> 100 µM				
CCCCCCNC(=O)CCN(C(=O)O)S(=O)(=O)c1ccc(NC(=O)c2ccccc2)cc1	17.9 µM (inactive)	> 57.4 µM (inactive)	> 100 µM (inactive)	19.3 µM (inactive)	> 100 µM (inactive)	> 100 µM (inactive)	> 100 µM (inactive)	> 100 µM (inactive)	35.9 µM (inactive)	> 100 µM (inactive)	> 100 µM (inactive)	> 48.2 µM (inactive)	> 100 µM (inactive)	> 100 µM (inactive)	> 100 µM (inactive)	22 µM				
O=c1c2cc([N+](=O)[O-])ccc2n2n1CCCC2	> 100 µM (inactive)	> 100 µM (inactive)		> 100 µM (inactive)	> 100 µM (inactive)	> 100 µM (inactive)	> 100 µM (inactive)	71.3 µM (inactive)	> 100 µM (inactive)	> 100 µM (inactive)	> 100 µM (inactive)	> 100 µM (inactive)	> 100 µM (inactive)	> 100 µM (inactive)	> 100 µM (inactive)	> 100 µM	> 100 µM (inactive)	> 100 µM (inactive)	> 100 µM (inactive)	
Cc1ccc(/C=C2\NC(=S)NC2=O)cc1	> 100 µM (inactive)	> 100 µM (inactive)	> 100 µM (inactive)		> 100 µM (inactive)	62.8 µM (inactive)	> 100 µM (inactive)	> 100 µM (inactive)		> 100 µM (inactive)	> 100 µM (inactive)	> 100 µM (inactive)	62.8 µM (inactive)	> 100 µM (inactive)	> 100 µM (inactive)	> 100 µM	> 100 µM (inactive)	> 100 µM (inactive)	> 100 µM (inactive)	> 100 µM (inactive)
Cc1ccc(CCNC(=S)SCC(NC(=O)CCC(N)C(=O)O)C(=O)NCC(=O)O)cc1 (stereo not given)	1.48 µM (inactive)	0.533 µM (active)	0.385 µM (active)	2.13 µM (inactive)	2.26 µM (inactive)	2.99 µM (inactive)	1.76 µM (inactive)	1.12 µM (inactive)	0.51 µM (active)	1.22 µM (inactive)	2.17 µM (inactive)	0.398 µM (active)	6.19 µM (inactive)	7.4 µM (inactive)	1.41 µM (inactive)	1.43 µM				
O=S(=O)(O)c1c(/N=N/c2c(O)ccc3ccccc23)ccc2ccccc12		> 100 µM (inactive)	> 100 µM (inactive)	> 100 µM (inactive)	19.4 µM (inactive)	> 100 µM (inactive)	> 100 µM (inactive)	76.7 µM (inactive)		> 100 µM (inactive)	> 100 µM (inactive)	> 100 µM (inactive)	> 100 µM (inactive)	79.8 µM (inactive)	> 100 µM (inactive)	> 100 µM	> 100 µM (inactive)	> 100 µM (inactive)	> 100 µM (inactive)	
CN(C)CC1CC/C(=C\c2ccc(Cl)c(Cl)c2)C1=O (stereo not given)	> 40.5 µM (inactive)	11.5 µM (inactive)	> 45.1 µM (inactive)	2.2 µM (inactive)	> 100 µM (inactive)	19 µM (inactive)	> 38.9 µM (inactive)	> 40.6 µM (inactive)	0.586 µM (active)	18.9 µM (inactive)	28.3 µM (inactive)	5.58 µM (inactive)	39.3 µM (inactive)	> 100 µM (inactive)	14.8 µM (inactive)	12.7 µM				
CCCCCCCCCCCCCCCCCCNc1nc(=O)n(C2CC(O)C(COP(=O)(O)O)O2)cc1F (stereo not given)	15 µM (inactive)	> 72.8 µM (inactive)	> 100 µM (inactive)		38.9 µM (inactive)	> 100 µM (inactive)	> 95.7 µM (inactive)	31.7 µM (inactive)		> 100 µM (inactive)	> 100 µM (inactive)	> 100 µM (inactive)	99.5 µM (inactive)	> 100 µM (inactive)	15 µM (inactive)	> 100 µM	> 35.6 µM (inactive)	> 100 µM (inactive)	> 57.4 µM (inactive)	16.9 µM (inactive)
